Patent US20260365670A1, “EGFR INHIBITORS AND USES THEREOF” (DIZAL (JIANGSU) PHARMACEUTICAL CO., LTD., priority 2022, published 2026)
pIC50: −log10 of the molar value. Where two headings read alike, the source gives them in different places.

How the values were obtained:
EGFR wild type = target: T1, EGFR wild type (Homo sapiens, UniProt P00533); assay: Inhibition of EGFR wild type biochemical enzymatic activity (HTRF); conditions: 1 mM ATP; for pIC50: EGFR wild type, 1 h at room temperature, read-out: IC50 @WT
T1 construct: purchased Carna Bio
Method in brief: (§1)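 Enzyme preincubated with compound, then ATP (1 mM) and TK substrate-biotin (1 μM) added; 1 h RT; stopped with EDTA-containing detection mix; HTRF read (ex 320, em 615/665 nm); IC50 by 4-parameter logistic fit.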

EGFR L858R = target: T2, EGFR L858R (Homo sapiens, UniProt P00533, L858R); assay: Inhibition of EGFR L858R biochemical enzymatic activity (HTRF); conditions: 1 mM ATP; for pIC50: 1 h at room temperature, read-out: IC50 @L858R
T2 construct: purchased Carna Bio
Method in brief: as §1

EGFR L858R/T790M = target: T3, EGFR L858R/T790M (Homo sapiens, UniProt P00533, L858R/T790M); assay: Inhibition of EGFR L858R/T790M biochemical enzymatic activity (HTRF); conditions: 1 mM ATP; for pIC50: EGFR L858R/T790M, 1 h at room temperature, read-out: IC50 @L858R-T790M
T3 construct: purchased Carna Bio
Method in brief: as §1

EGFR Exon19Del = target: T4, EGFR Exon19Del (Homo sapiens, UniProt P00533, DEL746-750); assay: Inhibition of EGFR Exon19Del biochemical enzymatic activity (HTRF); conditions: read-out: IC50 @Del19
T4 construct: purchased Carna Bio
Method in brief: as §1

EGFR Exon19Del/T790M = target: T5, EGFR Exon19Del/T790M (Homo sapiens, UniProt P00533, DEL746-750/T790M); assay: Inhibition of EGFR Exon19Del/T790M biochemical enzymatic activity (HTRF); conditions: 1 mM ATP; for pIC50: EGFR Exon19Del/T790M, 1 h at room temperature, read-out: IC50 @Del19-T790M
T5 construct: purchased Carna Bio
Method in brief: as §1

EGFR[T790M/C797S/L858R] = target: T6, EGFR[T790M/C797S/L858R] (Homo sapiens, UniProt P00533, C797S/L858R/T790M); assay: Inhibition of EGFR[T790M/C797S/L858R] biochemical enzymatic activity (HTRF); conditions: 1 mM ATP; for pIC50: EGFR[T790M/C797S/L858R], 1 h at room temperature, read-out: IC50 @T790M- C797S - L858R
T6 construct: purchased Carna Bio
Method in brief: as §1

[1] = target: T7, EGFR[T790M/C797S/d746-750] (Homo sapiens, UniProt P00533, C797S/DEL746-750/T790M); assay: Inhibition of EGFR[T790M/C797S/d746-750] biochemical enzymatic activity (HTRF); conditions: for pIC50: EGFR[T790M/C797S/d746-750], 1 mM ATP, 1 h at room temperature, read-out: IC50 @T790M - C797S - Del19
T7 construct: purchased Carna Bio
Method in brief: as §1

EGFR (d746-750 C797S) = target: T8, EGFR (d746-750 C797S) (Homo sapiens, UniProt P00533, C797S/DEL746-750); assay: Inhibition of EGFR (d746-750 C797S) biochemical enzymatic activity (HTRF); conditions: 1 mM ATP; for pIC50: EGFR (d746-750 C797S), 1 h at room temperature, read-out: IC50 @Del19-C797S
T8 construct: purchased signalchem
Method in brief: as §1

EGFR (C797S L858R) = target: T9, EGFR (C797S L858R) (Homo sapiens, UniProt P00533, C797S/L858R); assay: Inhibition of EGFR (C797S L858R) biochemical enzymatic activity (HTRF); conditions: 1 mM ATP; for pIC50: EGFR (C797S L858R), 1 h at room temperature, read-out: IC50 @L858-C797S
T9 construct: purchased signalchem
Method in brief: as §1

[2] = test system: Ba/F3 cells expressing EGFR mutations; assay: Cell proliferation assay, Ba/F3 cells expressing EGFR mutations (CellTiter-Glo, 72 hours); format: cell-based
Method in brief: (§2)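 Luminescent viable-cell counts were taken on a day 0 plate at dosing and again at endpoint. Proliferation was calculated as (sample − G0)/(DMSO − G0). Seeding was 5000 Ba/F3 or 500 PC-9 cells per well in RPMI1640, followed by overnight attachment and serial compound dilutions. The GI50 was fitted.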

PC-9 = assay: Cell proliferation assay, PC-9 cells (CellTiter-Glo, 72 hours); format: cell-based; conditions: PC9 cells
Method in brief: as §2

[3] = EGFR Exon19Del, 1 mM ATP, 1 h at room temperature
[4] = Mus musculus, BaF3, 72 h, BaF3 cells, EGFR DEL19 - C797S, read-out: GI50 DEL19 - C797S/BaF3
[5] = Mus musculus, BaF3, 72 h, BaF3 cells, EGFR DEL19 - T790-C797S, read-out: GI50 DEL19 - T790-C797S/BaF3
[6] = Mus musculus, BaF3, 72 h, BaF3 cells, EGFR L858R - C797S, read-out: GI50 L858R - C797S/BaF3
[7] = Mus musculus, BaF3, 72 h, BaF3 cells, EGFR L858R - T790-C797S, read-out: GI50 L858R - T790-C797S/BaF3
[8] = Mus musculus, BaF3, 72 h, BaF3 cells, EGFR L858R - T790M, read-out: GI50 L858R - T790M/BaF3
[9] = Mus musculus, BaF3, 72 h, BaF3 cells, EGFR L858R, read-out: GI50 L858R/BaF3
[10] = Mus musculus, BaF3, 72 h, EGFR DEL19 - T790M, read-out: GI50 DEL19 - T790M
[11] = Homo sapiens, PC-9, 72 h, read-out: GI50 PC9

T2 sequence (P00533 25-1210 L858R): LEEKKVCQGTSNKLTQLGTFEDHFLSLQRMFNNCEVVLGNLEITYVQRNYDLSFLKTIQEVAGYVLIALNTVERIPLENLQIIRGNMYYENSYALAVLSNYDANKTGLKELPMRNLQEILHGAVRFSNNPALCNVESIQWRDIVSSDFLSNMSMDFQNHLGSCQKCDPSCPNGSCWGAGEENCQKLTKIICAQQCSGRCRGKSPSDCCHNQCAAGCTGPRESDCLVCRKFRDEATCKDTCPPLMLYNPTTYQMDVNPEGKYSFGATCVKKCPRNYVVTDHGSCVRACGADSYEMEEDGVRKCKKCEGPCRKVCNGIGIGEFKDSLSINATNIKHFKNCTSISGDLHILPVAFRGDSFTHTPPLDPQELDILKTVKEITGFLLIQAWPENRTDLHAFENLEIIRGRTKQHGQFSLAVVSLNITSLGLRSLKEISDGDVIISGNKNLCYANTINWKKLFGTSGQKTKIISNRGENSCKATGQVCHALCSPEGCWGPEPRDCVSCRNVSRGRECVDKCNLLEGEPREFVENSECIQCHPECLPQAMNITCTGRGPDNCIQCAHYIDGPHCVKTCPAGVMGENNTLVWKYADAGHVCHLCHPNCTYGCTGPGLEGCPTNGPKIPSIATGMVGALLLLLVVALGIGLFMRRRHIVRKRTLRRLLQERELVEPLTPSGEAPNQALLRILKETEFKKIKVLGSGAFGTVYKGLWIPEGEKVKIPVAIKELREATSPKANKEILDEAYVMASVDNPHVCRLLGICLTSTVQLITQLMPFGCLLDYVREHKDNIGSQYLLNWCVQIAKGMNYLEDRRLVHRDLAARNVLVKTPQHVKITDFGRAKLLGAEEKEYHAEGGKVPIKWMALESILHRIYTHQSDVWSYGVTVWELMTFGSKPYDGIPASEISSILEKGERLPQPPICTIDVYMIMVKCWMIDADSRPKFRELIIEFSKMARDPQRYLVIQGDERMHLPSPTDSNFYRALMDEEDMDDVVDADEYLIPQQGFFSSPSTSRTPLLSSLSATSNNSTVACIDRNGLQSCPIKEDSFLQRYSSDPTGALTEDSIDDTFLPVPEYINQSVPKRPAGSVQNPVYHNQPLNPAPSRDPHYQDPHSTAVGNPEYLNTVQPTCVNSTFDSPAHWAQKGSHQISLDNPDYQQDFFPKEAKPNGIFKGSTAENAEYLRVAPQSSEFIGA
T1 sequence (P00533 25-1210): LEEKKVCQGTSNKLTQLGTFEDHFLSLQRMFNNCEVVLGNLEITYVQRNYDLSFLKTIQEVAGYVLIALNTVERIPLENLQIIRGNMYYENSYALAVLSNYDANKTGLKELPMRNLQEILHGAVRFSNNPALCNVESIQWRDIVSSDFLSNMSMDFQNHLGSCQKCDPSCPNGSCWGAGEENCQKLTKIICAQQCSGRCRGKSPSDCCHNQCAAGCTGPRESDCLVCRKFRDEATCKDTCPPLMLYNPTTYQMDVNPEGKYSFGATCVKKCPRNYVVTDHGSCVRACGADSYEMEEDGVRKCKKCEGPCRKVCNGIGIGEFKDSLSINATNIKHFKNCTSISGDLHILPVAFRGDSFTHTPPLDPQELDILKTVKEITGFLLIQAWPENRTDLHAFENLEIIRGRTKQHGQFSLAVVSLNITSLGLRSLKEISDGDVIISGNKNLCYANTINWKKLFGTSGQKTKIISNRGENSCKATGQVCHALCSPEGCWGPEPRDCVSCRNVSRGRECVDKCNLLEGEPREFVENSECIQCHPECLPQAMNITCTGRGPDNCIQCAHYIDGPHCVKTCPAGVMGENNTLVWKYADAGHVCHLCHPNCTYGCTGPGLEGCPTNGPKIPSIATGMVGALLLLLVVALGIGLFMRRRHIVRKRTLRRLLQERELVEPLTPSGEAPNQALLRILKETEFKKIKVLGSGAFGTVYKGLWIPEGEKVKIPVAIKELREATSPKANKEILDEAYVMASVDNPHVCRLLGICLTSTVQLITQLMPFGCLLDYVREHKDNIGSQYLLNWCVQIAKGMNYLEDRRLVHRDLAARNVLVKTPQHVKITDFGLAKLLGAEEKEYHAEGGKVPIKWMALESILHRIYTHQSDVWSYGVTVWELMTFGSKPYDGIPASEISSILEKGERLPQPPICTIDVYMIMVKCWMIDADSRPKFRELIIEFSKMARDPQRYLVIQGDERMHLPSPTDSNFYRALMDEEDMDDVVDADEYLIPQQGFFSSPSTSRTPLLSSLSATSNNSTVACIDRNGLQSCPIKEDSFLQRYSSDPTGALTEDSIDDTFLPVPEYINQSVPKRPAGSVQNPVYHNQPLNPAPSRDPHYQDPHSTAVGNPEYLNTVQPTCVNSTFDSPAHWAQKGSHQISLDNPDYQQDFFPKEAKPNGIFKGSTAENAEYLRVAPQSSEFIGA
T9 sequence (P00533 25-1210 C797S/L858R): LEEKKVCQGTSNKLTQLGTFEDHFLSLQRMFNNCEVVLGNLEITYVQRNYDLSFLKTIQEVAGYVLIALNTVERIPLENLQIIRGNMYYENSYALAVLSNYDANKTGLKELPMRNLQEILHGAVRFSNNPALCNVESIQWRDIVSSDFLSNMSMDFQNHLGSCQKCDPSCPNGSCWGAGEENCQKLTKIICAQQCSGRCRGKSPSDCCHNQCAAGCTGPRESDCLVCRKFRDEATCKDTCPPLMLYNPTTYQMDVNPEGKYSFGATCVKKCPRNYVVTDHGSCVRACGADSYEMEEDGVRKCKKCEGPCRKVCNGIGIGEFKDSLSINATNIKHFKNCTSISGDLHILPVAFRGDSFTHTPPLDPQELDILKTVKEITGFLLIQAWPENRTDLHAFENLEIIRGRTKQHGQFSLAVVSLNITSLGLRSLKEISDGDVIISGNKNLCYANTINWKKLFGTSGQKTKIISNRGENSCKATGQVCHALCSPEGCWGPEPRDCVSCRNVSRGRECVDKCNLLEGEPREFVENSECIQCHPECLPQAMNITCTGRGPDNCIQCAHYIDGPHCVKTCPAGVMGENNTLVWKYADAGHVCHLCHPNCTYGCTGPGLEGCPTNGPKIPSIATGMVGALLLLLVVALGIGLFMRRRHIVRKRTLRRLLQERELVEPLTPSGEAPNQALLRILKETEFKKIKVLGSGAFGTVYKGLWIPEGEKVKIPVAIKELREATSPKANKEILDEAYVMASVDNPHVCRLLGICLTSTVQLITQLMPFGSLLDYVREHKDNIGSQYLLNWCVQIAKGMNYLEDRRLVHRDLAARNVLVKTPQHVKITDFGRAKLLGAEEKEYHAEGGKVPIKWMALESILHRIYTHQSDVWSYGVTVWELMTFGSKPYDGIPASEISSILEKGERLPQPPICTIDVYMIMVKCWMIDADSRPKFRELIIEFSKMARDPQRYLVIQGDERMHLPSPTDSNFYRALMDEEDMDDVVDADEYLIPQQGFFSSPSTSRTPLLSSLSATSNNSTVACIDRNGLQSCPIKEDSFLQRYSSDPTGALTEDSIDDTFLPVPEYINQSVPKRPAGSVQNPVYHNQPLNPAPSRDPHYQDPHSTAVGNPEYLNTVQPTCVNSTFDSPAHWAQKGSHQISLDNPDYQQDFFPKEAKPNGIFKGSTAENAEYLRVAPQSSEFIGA
T7 sequence (P00533 with tags, fused parts or gaps DEL746-750/T790M/C797S limits assumed): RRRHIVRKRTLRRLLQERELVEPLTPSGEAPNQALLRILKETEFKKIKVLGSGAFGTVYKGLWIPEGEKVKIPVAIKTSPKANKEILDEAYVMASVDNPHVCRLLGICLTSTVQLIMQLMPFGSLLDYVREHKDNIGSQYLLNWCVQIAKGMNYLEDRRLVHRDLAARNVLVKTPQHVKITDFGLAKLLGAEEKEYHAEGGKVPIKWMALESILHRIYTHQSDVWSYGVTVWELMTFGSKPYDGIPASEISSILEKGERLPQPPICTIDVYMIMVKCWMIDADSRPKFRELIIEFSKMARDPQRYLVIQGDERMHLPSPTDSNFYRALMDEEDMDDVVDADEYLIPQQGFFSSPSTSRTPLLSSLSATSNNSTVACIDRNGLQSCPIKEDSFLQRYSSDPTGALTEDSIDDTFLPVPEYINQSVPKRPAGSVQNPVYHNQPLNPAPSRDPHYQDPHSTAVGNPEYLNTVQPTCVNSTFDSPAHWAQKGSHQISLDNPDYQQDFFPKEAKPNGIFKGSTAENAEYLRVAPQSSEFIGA
T5 sequence (P00533 with tags, fused parts or gaps DEL746-750/T790M limits assumed): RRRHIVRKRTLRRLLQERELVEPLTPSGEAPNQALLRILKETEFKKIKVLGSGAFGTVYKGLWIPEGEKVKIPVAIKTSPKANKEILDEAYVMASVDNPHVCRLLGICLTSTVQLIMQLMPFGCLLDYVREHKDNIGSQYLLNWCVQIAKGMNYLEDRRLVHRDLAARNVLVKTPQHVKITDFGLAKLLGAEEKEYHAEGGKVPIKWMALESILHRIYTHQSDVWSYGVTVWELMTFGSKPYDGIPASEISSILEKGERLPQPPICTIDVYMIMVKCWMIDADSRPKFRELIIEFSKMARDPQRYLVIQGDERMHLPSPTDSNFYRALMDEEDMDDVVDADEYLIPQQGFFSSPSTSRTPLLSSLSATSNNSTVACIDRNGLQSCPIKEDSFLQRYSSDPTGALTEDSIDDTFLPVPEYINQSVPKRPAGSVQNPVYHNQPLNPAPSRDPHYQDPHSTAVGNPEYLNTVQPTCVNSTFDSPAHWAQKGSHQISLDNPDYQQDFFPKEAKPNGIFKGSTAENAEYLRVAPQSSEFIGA

Compound	pIC50 (EGFR wild type)	pIC50 (EGFR L858R)	pIC50 (EGFR L858R/T790M)	pIC50 (EGFR Exon19Del; [3])	pIC50 (EGFR Exon19Del/T790M)	pIC50 (EGFR[T790M/C797S/L858R])	pIC50 [1]	pIC50 (EGFR (d746-750 C797S))	pIC50 (EGFR (C797S L858R))	GI50 [2, 4]	GI50 [2, 5]	GI50 [2, 6]	GI50 [2, 7]	GI50 [2, 8]	GI50 [2, 9]	GI50 [2, 10]	GI50 (PC-9; [11])	other results
C[C@@H]1CCCOc2c(cnn2CC(F)(F)F)-c2cc(cn(C)c2=O)C(=O)Nc2nc3ccc(N4CCN(C)CC4)cc3n2C1 [Example A20, (11R)-11,26-Dimethyl-16-(4-methylpiperazin-1-yl)-5-(2,2,2-trifluoroethyl)-7-oxa-4,5,13,20,22,26-hexaazapentacyclo[22.3.1.0^{2,6}.0^{13,21}.0^{14,19}]octacosa-1(28),2(6),3,14,16,18,20,24-octaene-23,27-dione]																		IC50 (EGFR wild type; EGFR WT, 1 h, room temperature, read-out: IC50 (nM) @WT): > 5000 nM; IC50 (EGFR L858R; 1 h, room temperature, read-out: IC50 (nM) @L858R): 301 nM; IC50 (EGFR L858R/T790M; EGFR L858R-T790M, 1 h, room temperature, read-out: IC50 (nM) @L858R-T790M): 82 nM; pIC50 (EGFR Exon19Del; EGFR Del19, 1 mM ATP, 1 h, room temperature): 7.07; IC50 (EGFR Exon19Del/T790M; EGFR Del19-T790M, 1 h, room temperature, read-out: IC50 (nM) @Del19-T790M): 41 nM; IC50 (EGFR[T790M/C797S/L858R]; EGFR T790M-C797S-L858R, 1 h, room temperature, read-out: IC50 (nM) @T790M- C797S - L858R): 76 nM; IC50 ([1]; EGFR T790M-C797S-Del19, 1 mM ATP, 1 h, room temperature, read-out: IC50 (nM) @T790M - C797S - Del19): 40 nM; IC50 (EGFR (d746-750 C797S); EGFR Del19-C797S, 1 h, room temperature, read-out: IC50 (nM) @Del19-C797S): 42 nM; IC50 (EGFR (C797S L858R); EGFR L858-C797S, 1 h, room temperature, read-out: IC50 (nM) @L858-C797S): 132 nM; GI50 ([2]; Mus musculus, BaF3, 72 h, BaF3 cells, EGFR DEL19-C797S, CellTiter-Glo, read-out: DEL19-C797S/BaF3 GI50): 0.0171 µM; GI50 ([2]; Mus musculus, BaF3, 72 h, BaF3 cells, EGFR DEL19-T790-C797S, CellTiter-Glo, read-out: DEL19-T790-C797S/BaF3 GI50): 0.204 µM; GI50 ([2]; Mus musculus, BaF3, 72 h, BaF3 cells, EGFR L858R, CellTiter-Glo, read-out: L858R/BaF3 GI50): 0.089 µM; GI50 ([2]; Mus musculus, BaF3, 72 h, BaF3 cells, EGFR L858R-C797S, CellTiter-Glo, read-out: L858R-C797S/BaF3 GI50): 0.087 µM; GI50 ([2]; Mus musculus, BaF3, 72 h, BaF3 cells, EGFR L858R-T790-C797S, CellTiter-Glo, read-out: L858R-T790-C797S/BaF3 GI50): 0.051 µM; GI50 ([2]; Mus musculus, BaF3, 72 h, BaF3 cells, EGFR L858R-T790M, CellTiter-Glo, read-out: L858R-T790M/BaF3 GI50): 0.039 µM; GI50 ([2]; Mus musculus, BaF3, 72 h, EGFR DEL19-T790M, CellTiter-Glo, read-out: DEL19-T790M GI50): 0.226 µM; GI50 (PC-9; Homo sapiens, PC-9, 72 h, CellTiter-Glo, read-out: PC9 GI50): 0.145 µM
Cc1cc2cc(n1)-c1cnn(C)c1OCCN1CCOCC(C1)n1c(nc3ccccc31)NC2=O (centres unmarked) [Example B7B, 15,21-dimethyl-23,29-dioxa-2,9,11,16,20,21,26-heptaazahexacyclo[24.4.1.1^{13,17}.0^{2,10}.0^{3,8}.0^{18,22}]dotriaconta-3,5,7,9,13(32),14,16,18(22),19-nonaen-12-one]	< 5.30	< 5.30	6.04	6.06	7.38	6.28	7.77	6.49	5.35									GI50 ([2]; BaF3 cells, EGFR DEL19 - C797S, read-out: GI50 DEL19 - C797S/BaF3): 0.173 µM; GI50 ([2]; BaF3 cells, EGFR DEL19 - T790-C797S, read-out: GI50 DEL19 - T790-C797S/BaF3): 0.13 µM; GI50 ([2]; BaF3 cells, EGFR L858R - C797S, read-out: GI50 L858R - C797S/BaF3): 0.253 µM; GI50 ([2]; BaF3 cells, EGFR L858R - T790-C797S, read-out: GI50 L858R - T790-C797S/BaF3): 0.123 µM; GI50 ([2]; BaF3 cells, EGFR L858R - T790M, read-out: GI50 L858R - T790M/BaF3): 0.292 µM; GI50 ([2]; BaF3 cells, EGFR L858R, read-out: GI50 L858R/BaF3): 1.6 µM; GI50 ([2]; EGFR DEL19 - T790M, read-out: GI50 DEL19 - T790M): 0.189 µM; GI50 (PC-9; read-out: GI50 PC9): 0.469 µM
Cc1cc2cc(n1)-c1cnn(C)c1OCCCCCn1c(nc3ccc4c(c31)CN(C1COC1)CC4)NC2=O [Example B18, 5,30-dimethyl-17-(oxetan-3-yl)-7-oxa-4,5,13,17,24,26,31-heptaazahexacyclo[26.3.1.0^{2,6}.0^{13,25}.0^{14,23}.0^{15,20}]dotriaconta-1(31),2(6),3,14,20,22,24,28(32),29-nonaen-27-one]	< 5.30	< 5.30	< 5.30	6.03	7.48	5.70	7.51	< 6.30	< 5.30	0.086 µM	0.032 µM	2.69 µM	0.024 µM	0.096 µM	0.432 µM	0.012 µM	0.122 µM	
Cc1cc2cc(n1)-c1cnn(C)c1OCCCCCn1c(nc3ccn(C)c(=O)c31)NC2=O [Example B20, 5,16,26-Trimethyl-7-oxa-4,5,13,16,20,22,27-heptaazapentacyclo[22.3.1.0^{2,6}.0^{13,21}.0^{14,19}]octacosa-1(27),2(6),3,14(19),17,20,24(28),25-octaene-15,23-dione]	< 5.30	< 5.30	< 5.30	< 5.30	6.16	< 5.30	6.91	< 5.30	< 5.30	0.487 µM	0.258 µM	10 µM	0.159 µM	1.02 µM	2.04 µM	0.331 µM	1.28 µM	
